Data published in patent publication US20140005197A1, “INHIBITORS OF INFLUENZA VIRUSES REPLICATION” (Vertex Pharmaceuticals Incorporated, priority 2010, published 2014).
Where two headings read alike, the source gives them in different places.

What was measured:
[1] = system: influenza A virus (A/PR/8/34); test: microbe, parasite or virus in culture; format: cell-based
influenza A virus = test: microbe, parasite or virus in culture; format: cell-based
influenza = test: Influenza Therapeutic Mouse Model; format: in vivo; details: Balb/c mice, 30 mg/kg BID × 10 days, dosing @ 48 hours post infection
[2] = Influenza A virus, PR/8, MDCK, 72 h, read-out: Flu, MDCK IC50
[3] = Influenza A virus, viral RNA 50% of control wells, 18-36 hours, mean all, read-out: bDNA EC50
[4] = viral RNA 50% of control wells, 18-36 hours, mean all, read-out: bDNA EC50
[5] = Influenza A virus, PR/8, MDCK, MDCK cells, A/PR/8/34, CPE assay, read-out: IC50
[6] = Influenza A virus, bDNA viral RNA assay, read-out: EC50

In the case of `O=C(O)[C@@H]1CCC[C@H](Nc2nc(-c3n[nH]c4ncc(F)cc34)c(F)cc2F)C1` [Compound I-2, (1R,3S)-3-(3,5-difluoro-6-(5-fluoro-1H-pyrazolo[3,4-b]pyridin-3-yl)pyridin-2-ylamino)cyclohexanecarboxylic acid], the IC50 [1, 2] is reported as < 3.3 µM and the EC50 (influenza A virus; [3]) is reported as < 3.3 µM.

In the case of `O=C(N[C@@H]1CCC[C@H](Nc2nc(-c3n[nH]c4ncc(F)cc34)c(F)cc2F)C1)c1csc(Cl)c1` [Compound I-18, 5-chloro-N-((1R,3S)-3-((3,5-difluoro-6-(5-fluoro-1H-pyrazolo[3,4-b]pyridin-3-yl)pyridin-2-yl)amino)cyclohexyl)thiophene-3-carboxamide], the IC50 [1, 2] is reported as < 3.3 µM and the EC50 (influenza A virus; [3]) is reported as < 3.3 µM.

With `O=C(O)[C@@H]1C2CCC(CC2)[C@H]1Nc1nc(-c2n[nH]c3ncc(F)cc23)ccc1F` [Compound I-10] the EC50 (influenza A virus; [3]) was < 3.3 µM.

With `N#Cc1cc(F)c(NC2C3CCC(CC3)C2C(=O)O)cc1-c1n[nH]c2ncc(F)cc12` (racemic) [Compound I-21, (+/−)-trans-3-((4-cyano-2-fluoro-5-(5-fluoro-1H-pyrazolo[3,4-b]pyridin-3-yl)phenyl)amino)bicyclo[2.2.2]octane-2-carboxylic acid] the IC50 [1, 2] was < 3.3 µM and the EC50 (influenza A virus; [3]) was < 3.3 µM.

For `O=C(O)[C@H]1C2CCC(CC2)[C@@H]1Nc1nc(-c2n[nH]c3ncc(F)cc23)ccc1F` [Compound I-11, (2S,3S)-3-(3-fluoro-6-(5-fluoro-1H-pyrazolo[3,4-b]pyridin-3-yl)pyridin-2-ylamino)bicyclo[2.2.2]octane-2-carboxylic acid], the IC50 ([1]; read-out: Flu, MDCK IC50) was < 3.3 µM and the EC50 (influenza A virus; [4]) was < 3.3 µM.

`O=C(O)[C@H]1C2CCC(CC2)[C@@H]1Nc1cncc(-c2n[nH]c3ncc(F)cc23)n1` [Compound I-14, (2S,3S)-3-((6-(5-fluoro-1H-pyrazolo[3,4-b]pyridin-3-yl)pyrazin-2-yl)amino)bicyclo-[2.2.2]octane-2-carboxylic acid] was tested, and the IC50 [1, 2] was < 3.3 µM and the EC50 (influenza A virus; [3]) was < 3.3 µM.

`O=C(O)[C@H]1C2CCC(CC2)[C@@H]1Nc1nc(-c2n[nH]c3ncc(F)cc23)ccc1F` (stereo in doubt) [Compound I-7] was tested, and the IC50 [1, 2] was < 3.3 µM and the EC50 (influenza A virus; [3]) was < 3.3 µM.

With `N#Cc1cc(F)c(N[C@H]2C3CCC(CC3)[C@@H]2C(=O)O)nc1-c1n[nH]c2ncc(F)cc12` (racemic) [Compound I-12] the IC50 [1, 2] was < 3.3 µM and the EC50 (influenza A virus; [3]) was < 3.3 µM.

With `O=C(O)[C@H]1C2CCC(CC2)[C@@H]1Nc1cncc(-c2n[nH]c3ncc(F)cc23)n1` (racemic) [Compound I-9, (+/−)-trans-(2,3)-3-((6-(5-fluoro-1H-pyrazolo[3,4-b]pyridin-3-yl)pyrazin-2-yl)amino)bicyclo[2.2.2]octane-2-carboxylic acid] the IC50 [1, 2] was < 3.3 µM, the IC50 [1, 5] was 0.017 µM and the EC50 (influenza A virus; [6]) was 0.034 µM. The EC50 (influenza A virus; [3]) was < 3.3 µM.

For `O=C(O)[C@H]1C2CCC(CC2)[C@@H]1Nc1nc(-c2n[nH]c3ncc(Cl)cc23)c(F)cc1F` (racemic) [Compound I-6, (2S,3S)-3-((6-(5-chloro-1H-pyrazolo[3,4-b]pyridin-3-yl)-3,5-difluoropyridin-2-yl)-amino)bicyclo[2.2.2]octane-2-carboxylate], the IC50 [1, 2] was < 3.3 µM and the EC50 (influenza A virus; [3]) was < 3.3 µM.

For `CCOC(=O)[C@@H]1CCC[C@H](Nc2nc(-c3n[nH]c4ncc(F)cc34)c(F)cc2F)C1` [Compound I-1, (1R,3S)-ethyl 3-(3,5-difluoro-6-(5-fluoro-1H-pyrazolo[3,4-b]pyridin-3-yl)pyridin-2-ylamino)cyclohexanecarboxylate], the IC50 [1, 2] was < 3.3 µM and the EC50 (influenza A virus; [3]) was < 3.3 µM.

For `O=C(O)[C@H]1C2CCC(CC2)[C@@H]1Nc1nc(-c2n[nH]c3ncc(F)cc23)c(F)cc1F` [Compound I-8, sodium (2S,3S)-3-(3,5-difluoro-6-(5-fluoro-1H-pyrazolo[3,4-b]pyridin-3-yl)pyridin-2-ylamino)bicyclo[2.2.2]octane-2-carboxylate], the IC50 [1, 5] was 3.57 µM, the “WBP (Penh; Day 6)” value (influenza; Whole Body Plethysmography, study day 6/7) was 2.03 and the “Percent Weight Loss (Day 8)” value (influenza; post challenge day 8) was 20.8%. The “Percent Survival” value (influenza; survival scored for 21 days) was 100%, the EC50 (influenza A virus; [6]) was 0.007 µM and the EC50 (influenza A virus; [4]) was < 3.3 µM.

In the case of `N#Cc1cc(F)c(N[C@@H]2C3CCC(CC3)[C@H]2C(=O)O)nc1-c1n[nH]c2ncc(F)cc12` [Compound I-16], the IC50 [1, 2] is reported as < 3.3 µM and the EC50 (influenza A virus; [3]) is reported as < 3.3 µM.

For `N#Cc1cc(F)c(N[C@H]2C3CCC(CC3)[C@@H]2C(=O)O)cc1-c1n[nH]c2ncc(F)cc12` [Compound I-20], the IC50 ([1]; read-out: Flu, MDCK IC50) was < 3.3 µM and the EC50 (influenza A virus; [4]) was < 3.3 µM.

With `O=C(O)C1C2CCC(CC2)C1Nc1cnnc(-c2n[nH]c3ncc(F)cc23)n1` (racemic) [Compound I-17, (+/−)-trans-3-((3-(5-fluoro-1H-pyrazolo[3,4-b]pyridin-3-yl)-1,2,4-triazin-5-yl)amino)bicyclo[2.2.2]octane-2-carboxylic acid] the IC50 [1, 2] was < 3.3 µM and the EC50 (influenza A virus; [3]) was < 3.3 µM.

With `Cn1cnc(C(=O)N[C@@H]2CCC[C@H](Nc3nc(-c4n[nH]c5ncc(F)cc45)c(F)cc3F)C2)c1` [Compound I-3, N-((1R,3S)-3-(3,5-difluoro-6-(5-fluoro-1H-pyrazolo[3,4-b]pyridin-3-yl)pyridin-2-ylamino)cyclohexyl)-1-methyl-1H-imidazole-4-carboxamide] the IC50 [1, 2] was < 3.3 µM and the EC50 (influenza A virus; [3]) was < 3.3 µM.

For `O=C(O)[C@H]1C2CCC(CC2)[C@@H]1Nc1nc(-c2n[nH]c3ncc(F)cc23)c(F)cc1F` (stereo in doubt) [Compound I-5], the IC50 [1, 2] was < 3.3 µM and the EC50 (influenza A virus; [3]) was < 3.3 µM.

With `O=C(O)[C@@H]1C2CCC(CC2)[C@H]1Nc1cncc(-c2n[nH]c3ncc(F)cc23)n1` [Compound I-13, (2R,3R)-3-((6-(5-fluoro-1H-pyrazolo[3,4-b]pyridin-3-yl)pyrazin-2-yl)amino)bicyclo-[2.2.2]octane-2-carboxylic acid] the IC50 [1, 2] was < 3.3 µM and the EC50 (influenza A virus; [3]) was < 3.3 µM.

In the case of `N#Cc1cc(F)c(N[C@H]2C3CCC(CC3)[C@@H]2C(=O)O)nc1-c1n[nH]c2ncc(F)cc12` [Compound I-15, (2S,3S)-3-((5-cyano-3-fluoro-6-(5-fluoro-1H-pyrazolo[3,4-b]pyridin-3-yl)pyridin-2-yl)amino)bicyclo[2.2.2]octane-2-carboxylic acid], the IC50 [1, 2] is reported as < 3.3 µM and the EC50 (influenza A virus; [3]) is reported as < 3.3 µM.

`O=C(N[C@@H]1CCC[C@H](Nc2nc(-c3n[nH]c4ncc(F)cc34)c(F)cc2F)C1)c1ccsc1` [Compound I-19, N-((1R,3S)-3-((3,5-difluoro-6-(5-fluoro-1H-pyrazolo[3,4-b]pyridin-3-yl)pyridin-2-yl)amino)cyclohexyl)thiophene-3-carboxamide] was tested, and the IC50 [1, 2] was < 3.3 µM and the EC50 (influenza A virus; [3]) was < 3.3 µM.
